Source: patent publication US20230058623A1, “NOVEL HETEROARYL-TRIAZOLE COMPOUNDS AS PESTICIDES” (Bayer Aktiengesellschaft, priority 2019, published 2023)

What was measured:
Format in all cases: in vivo
[1] = system: Rhipicephalus (Boophilus) microplus larvae (strain Parkhurst, resistant against synthetic pyrethroids); assay: Rhipicephalus (Boophilus) microplus in-vitro contact test, larval cattle tick; conditions: after 48 hours, read-out: activity (efficacy: larvae dead or moribund); for pest or weed control at 1 µg/cm2, 100 g/ha: application rate 1 μg/cm^2 (=100 g/ha); for pest or weed control at 5 µg/cm2, 500 g/ha: application rate 5 μg/cm^2 (=500 g/ha)
Procedure: Rhipicephalus (Boophilus) microplus—In-Vitro Contact Tests Larval Cattle Tick (Strain Parkhurst, Resistant Against Synthetic Pyrethroids)
(§1) 9 mg compound is solved in 1 ml acetone and diluted with acetone to the desired concentration. 250 μL of the test solution is filled in 25 mL glass test tubes and homogeneously distributed on the inner walls by rotation and tilting on a shaking device (2 h at 30 rpm). With a compound concentration of 900 ppm, an inner surface of 44.7 cm^2 and a homogeneous distribution, a dose of 5 μg/cm^2 is achieved.
After the solvent has evaporated, each test tube is filled with 20-50 cattle tick larvae (Rhipicephalus microplus), closed with a perforated lid and incubated in a horizontal position at 85% relative humidity and 27° C. in an incubator. After 48 hours efficacy is determined. The larvae are patted on the ground of the tubes and negative geotactic behavior is recorded.
An efficacy of 100% means all larvae are dead or moribund; 0% means no larvae are dead or moribund.

[2] = system: adult engorged female ticks (Rhipicephalus microplus); assay: Rhipicephalus (Boophilus) microplus injection test; conditions: 168 h, application rate 4 μg/tick, egg deposition after 7 days, read-out: activity (efficacy: infertile eggs)
Procedure: Rhipicephalus (Boophilus) microplus—Injection Test
Solvent: dimethyl sulfoxide
To produce a suitable preparation of active compound, 10 mg of active compound are dissolved in 0.5 mL solvent, and the concentrate is diluted with solvent to the desired concentration.
Five adult engorged female ticks (Rhipicephalus microplus) are injected with 1 μL compound solution into the abdomen. The ticks are transferred into replica plates and incubated in a climate chamber.
After 7 days egg deposition of fertile eggs is monitored. Eggs where fertility is not visible are stored in a climate chamber till hatching after about 42 days. An efficacy of 100% means all eggs are infertile; 0% means all eggs are fertile.

[3] = system: adult cat fleas (Ctenocephalides felis); assay: Ctenocephalides felis in-vitro contact test, adult cat flea; conditions: application rate 5 μg/cm^2 (=500 g/ha), after 48 hours, read-out: activity (efficacy: fleas dead or moribund)
Procedure: Ctenocephalides felis—In-Vitro Contact Tests Adult Cat Flea
as §1, with “mL” for “ml”
(§2) After the solvent has evaporated, each test tube is filled with 5-10 adult cat fleas (Ctenocephalides felis), closed with a perforated lid and incubated in a lying position at room temperature and relative humidity. After 48 hours efficacy is determined. The fleas are patted on the ground of the tubes and are incubated on a heating plate at 45-50° C. for at most 5 minutes. Immotile or uncoordinated moving fleas, which are not able to escape the heat by climbing upwards, are marked as dead or moribund.
An efficacy of 100% means all fleas are dead or moribund; 0% means no fleas are dead or moribund.

[4] = system: adult brown dog ticks (Rhipicephalus sanguineus); assay: Rhipicephalus sanguineus in-vitro contact test, adult brown dog ticks; conditions: application rate 5 μg/cm^2 (=500 g/ha), after 48 hours, read-out: activity (efficacy: ticks dead or moribund)
Procedure: Rhipicephalus sanguineus—In-Vitro Contact Tests with Adult Brown Dog Ticks
as §1, with “mL” for “ml”
as §2, with “brown dog ticks (Rhipicephalus sanguineus),” for “cat fleas (Ctenocephalides felis),”, “ticks” for “fleas”, “ticks,” for “fleas,”
An efficacy of 100% means all ticks are dead or moribund; 0% means no ticks are dead or moribund.

[5] = system: larvae of the banded cucumber beetle (Diabrotica balteata); assay: Diabrotica balteata spray test; conditions: 168 h, application rate 100 g/ha (=32 μg/well), after 7 days, wheat seeds, read-out: activity (efficacy: seedlings grown)
Procedure: Diabrotica balteata—Spray Test
(§3) To produce a suitable preparation of active compound, 1 part by weight of active compound is mixed with the stated amount of solvent, and the concentrate is diluted with water, containing an emulsifier concentration of 1000 ppm, to the desired concentration. Further test concentrations are prepared by dilution with emulsifier containing water.
Soaked wheat seeds (Triticum aestivum) are placed in a multiple well plate filled with agar and some water and are incubated for 1 day to germinate (5 seeds per well). The germinated wheat seeds are sprayed with a test solution containing the desired concentration of the active ingredient. Afterwards each unit is infected with 10-20 larvae of the banded cucumber beetle (Diabrotica balteata).
After 7 days efficacy in % is determined. 100% means all the seedlings have grown up like in the untreated, uninfected control; 0% means none of the seedlings have grown.

[6] = system: green peach aphid (Myzus persicae); assay: Myzus persicae oral test; conditions: 120 h, read-out: activity (mortality)
Procedure: Solvent: 100 parts by weight acetone
To produce a suitable preparation of active compound, 1 part by weight of active compound is mixed with the stated amount of solvent, and the concentrate is diluted with water to the desired concentration.
50 μL compound solution is filled in microtiter plates and 150 μL IPL41 insect medium (33%+15% sugar) is added to obtain a total volume of 200 μL per well. Afterwards the plates are sealed with parafilm through which a mixed population of the green peach aphid (Myzus persicae) can suck on the compound preparation.
(§4) After 5 days mortality in % is determined. 100% means all aphids have been killed and 0% means none of the aphids have been killed.

[7] = system: green peach aphid (Myzus persicae); assay: Myzus persicae spray test; conditions: foliar, 120 h, application rate 100 g/ha, after 5 days, Chinese cabbage leaf disks, read-out: activity (mortality)
Procedure: Myzus persicae—Spray Test
as §3, with “solvents” for “solvent,”, “and” for “and the concentrate”
Chinese cabbage (Brassica pekinensis) leaf disks infected with all instars of the green peach aphid (Myzus persicae), are sprayed with a preparation of the active ingredient of the desired concentration.
as §4

[8] = system: larvae of the southern green stink bug (Nezara viridula); assay: Nezara viridula spray test; conditions: 96 h, after 4 days, barley plants; for mortality at 100 g/ha: application rate 100 g/ha; for mortality at 500 g/ha: application rate 500 g/ha, read-out: activity (mortality)
Procedure: Nezara viridula—Spray Test
as §3
Barley plants (Hordeum vulgare) are sprayed with a test solution containing the desired concentration of the active ingredient and are infested with larvae of the southern green stink bug (Nezara viridula).
After 4 days mortality in % is determined. 100% means all the stink bugs have been killed; 0% means none of the stink bugs have been killed.

[9] = system: fall armyworm larvae (Spodoptera frugiperda); assay: Spodoptera frugiperda spray test; conditions: 168 h, application rate 100 g/ha, after 7 days, maize leaf sections
Procedure: Spodoptera frugiperda—Spray Test
as §3, with “solvents” for “solvent,”, “and” for “and the concentrate”
Maize (Zea mays) leaf sections are sprayed with a preparation of the active ingredient of the desired concentration. Once dry, the leaf sections are infested with fall armyworm larvae (Spodoptera frugiperda).
After 7 days mortality in % is determined. 100% means all caterpillars have been killed and 0% means none of the caterpillars have been killed.

## C[C@H](NC(=O)c1cc(C(F)(F)F)cc(C(F)(F)F)c1)c1ncnn1-c1ccc(C(=O)N2CCOC(C)(C)C2)cn1 [Example I-14, N-[(1S)-1-(1-{5-[(2,2-dimethylmorpholin-4-yl)carbonyl]pyridin-2-yl}-1H-1,2,4-triazol-5-yl)ethyl]-3,5-bis(trifluoromethyl)benzamide]
[1]
  pest or weed control at 1 µg/cm2, 100 g/ha: 100%
  pest or weed control at 5 µg/cm2, 500 g/ha: 100%
[2]
  pest or weed control at 0.004 mg: 100%
[3]
  pest or weed control at 5 µg/cm2: 100%
[4]
  pest or weed control at 5 µg/cm2, 500 g/ha: 100%
[5]
  pest or weed control at 32 µg/disc, 100 g/ha: 100%
[6]
  mortality at 4 ppm: 100%
[7]
  mortality at 100 g/ha: 90%
[8]
  mortality at 100 g/ha: 100%
[9]
  mortality at 100 g/ha: 83%

## C[C@@H]1CN(C(=O)c2ccc(-n3ncnc3[C@H](C)NC(=O)c3cc(Cl)cc(S(C)(=O)=O)c3)nc2)C[C@@H](C)O1 [Example I-121]
[6]
  mortality at 4 ppm: 100%
[8]
  mortality at 100 g/ha: 90%
  mortality at 500 g/ha: 100%

## C[C@@H]1CN(C(=O)c2cnc(-n3ncnc3[C@H](C)NC(=O)c3cc(OC(F)(F)F)cc(C4CC4)c3)cn2)C[C@H](C)O1 [Example I-141]
[7]
  mortality at 100 g/ha: 90%
[8]
  mortality at 100 g/ha: 90%
  mortality at 500 g/ha: 100%
[9]
  mortality at 100 g/ha: 100%

## CC1CCN(C(=O)c2ccc(-n3ncnc3[C@H](C)NC(=O)c3cc(Cl)cc(C(F)(F)F)c3)nc2)CC1 [Example I-38]
[2]
  pest or weed control at 0.004 mg: 100%
[4]
  pest or weed control at 5 µg/cm2, 500 g/ha: 80%
[5]
  pest or weed control at 32 µg/disc, 100 g/ha: 100%

## C[C@H](NC(=O)c1cc(C(F)(F)F)cc(C(F)(F)F)c1)c1ncnn1-c1ccc(C(=O)N(C)C2CCN(C)CC2)cn1 [Example I-62]
[5]
  pest or weed control at 32 µg/disc, 100 g/ha: 80%
[8]
  mortality at 500 g/ha: 100%

## C[C@H](NC(=O)c1cc(Cl)cc(S(=O)(=O)C2CC2)c1)c1nc(C2CC2)nn1-c1ccc(C(=O)N2CCOCC2)cn1 [Example I-90]
[8]
  mortality at 500 g/ha: 100%
[9]
  mortality at 100 g/ha: 100%

## C[C@H](NC(=O)c1cc(Cl)cc(S(C)(=O)=O)c1)c1ncnn1-c1ccc(C(=O)N2CCSCC2)cn1 [Example I-120]
[5]
  pest or weed control at 32 µg/disc, 100 g/ha: 80%
[6]
  mortality at 4 ppm: 100%
[8]
  mortality at 100 g/ha: 90%

## C[C@H](NC(=O)c1cc(Cl)cc(C(F)(F)F)c1)c1ncnn1-c1ccc(C(=O)N2CCCOCC2)cn1 [Example I-34]
[1]
  pest or weed control at 1 µg/cm2, 100 g/ha: 100%
  pest or weed control at 5 µg/cm2, 500 g/ha: 100%
[2]
  pest or weed control at 0.004 mg: 100%
[4]
  pest or weed control at 5 µg/cm2, 500 g/ha: 100%

## C[C@H](NC(=O)c1cc(C(F)(F)F)cc(C(F)(F)F)c1)c1ncnn1-c1ccc(C(=O)N2CCC(O)CC2)cn1 [Example I-6]
[1]
  pest or weed control at 1 µg/cm2, 100 g/ha: 90%
[2]
  pest or weed control at 0.004 mg: 100%
[4]
  pest or weed control at 5 µg/cm2, 500 g/ha: 80%
[6]
  mortality at 4 ppm: 100%

## CCc1nc([C@H](C)NC(=O)c2cc(Br)cc(OC(F)(F)F)c2)n(-c2ccc(C(=O)N3C[C@@H](C)O[C@@H](C)C3)cn2)n1 [Example I-135]
[1]
  pest or weed control at 1 µg/cm2, 100 g/ha: 100%
  pest or weed control at 5 µg/cm2, 500 g/ha: 100%
[3]
  pest or weed control at 5 µg/cm2: 100%
[4]
  pest or weed control at 5 µg/cm2, 500 g/ha: 100%
[5]
  pest or weed control at 32 µg/disc, 100 g/ha: 100%
[8]
  mortality at 500 g/ha: 100%
[9]
  mortality at 100 g/ha: 100%

## C[C@H](NC(=O)c1cc(C(F)(F)F)cc(C(F)(F)F)c1)c1ncnn1-c1ccc(C(=O)N2CCC2)cn1 [Example I-10]
[1]
  pest or weed control at 1 µg/cm2, 100 g/ha: 100%
  pest or weed control at 5 µg/cm2, 500 g/ha: 100%
[2]
  pest or weed control at 0.004 mg: 100%
[3]
  pest or weed control at 5 µg/cm2: 100%
[4]
  pest or weed control at 5 µg/cm2, 500 g/ha: 100%
[6]
  mortality at 4 ppm: 100%
[7]
  mortality at 100 g/ha: 90%
[9]
  mortality at 100 g/ha: 100%

## C[C@H](NC(=O)c1cc(C(F)(F)F)cc(C(F)(F)F)c1)c1ncnn1-c1ccc(C(=O)N2CCOCC2c2ncno2)cn1 (stereo partly drawn) [Example I-98]
[1]
  pest or weed control at 1 µg/cm2, 100 g/ha: 100%
  pest or weed control at 5 µg/cm2, 500 g/ha: 100%
[3]
  pest or weed control at 5 µg/cm2: 90%
[4]
  pest or weed control at 5 µg/cm2, 500 g/ha: 100%
[5]
  pest or weed control at 32 µg/disc, 100 g/ha: 100%
[6]
  mortality at 4 ppm: 100%
[8]
  mortality at 100 g/ha: 90%

## C[C@H](NC(=O)c1cc(C(F)(F)F)cc(C(F)(F)F)c1)c1ncnn1-c1ccc(C(=O)N2CCNC(=O)C2)cn1 [Example I-65]
[6]
  mortality at 4 ppm: 100%
[8]
  mortality at 100 g/ha: 90%

## CCc1nc([C@H](C)NC(=O)c2cc(Cl)cc(S(=O)(=O)C3CC3)c2)n(-c2ccc(C(=O)N3C[C@@H](C)O[C@@H](C)C3)cn2)n1 [Example I-133]
[8]
  mortality at 500 g/ha: 100%
[9]
  mortality at 100 g/ha: 100%

## Cc1nc([C@H](C)NC(=O)c2cc(C(F)(F)F)cc(C(F)(F)F)c2)n(-c2ncc(C(=O)N3C[C@@H](C)O[C@H](C)C3)s2)n1 [Example I-106]
[1]
  pest or weed control at 1 µg/cm2, 100 g/ha: 100%
  pest or weed control at 5 µg/cm2, 500 g/ha: 100%
[2]
  pest or weed control at 0.004 mg: 100%
[4]
  pest or weed control at 5 µg/cm2, 500 g/ha: 100%
[5]
  pest or weed control at 32 µg/disc, 100 g/ha: 100%
[6]
  mortality at 4 ppm: 100%
[9]
  mortality at 100 g/ha: 100%

## C[C@@H]1CN(C(=O)c2cnc(-n3ncnc3[C@H](C)NC(=O)c3cc(C(F)(F)F)cc(C(F)(F)F)c3)cn2)C[C@H](C)O1 [Example I-143]
[5]
  pest or weed control at 32 µg/disc, 100 g/ha: 100%
[7]
  mortality at 100 g/ha: 90%
[8]
  mortality at 500 g/ha: 100%
[9]
  mortality at 100 g/ha: 100%
